One may read the pIC50 as the IC50 on a negative log10 scale, so that one unit is a factor of ten.

pIC50: −log10 of the molar value.

The target in experiment [1] is T1, recombinant human LTA4 hydrolase (rhLTA4H) (Homo sapiens, UniProt P09960).
T1 construct: made in house; host or cells: Spodoptera frugiperda (Sf-9) cells, recombinant baculovirus (pFastBac1)
T1 sequence (P09960 1-611): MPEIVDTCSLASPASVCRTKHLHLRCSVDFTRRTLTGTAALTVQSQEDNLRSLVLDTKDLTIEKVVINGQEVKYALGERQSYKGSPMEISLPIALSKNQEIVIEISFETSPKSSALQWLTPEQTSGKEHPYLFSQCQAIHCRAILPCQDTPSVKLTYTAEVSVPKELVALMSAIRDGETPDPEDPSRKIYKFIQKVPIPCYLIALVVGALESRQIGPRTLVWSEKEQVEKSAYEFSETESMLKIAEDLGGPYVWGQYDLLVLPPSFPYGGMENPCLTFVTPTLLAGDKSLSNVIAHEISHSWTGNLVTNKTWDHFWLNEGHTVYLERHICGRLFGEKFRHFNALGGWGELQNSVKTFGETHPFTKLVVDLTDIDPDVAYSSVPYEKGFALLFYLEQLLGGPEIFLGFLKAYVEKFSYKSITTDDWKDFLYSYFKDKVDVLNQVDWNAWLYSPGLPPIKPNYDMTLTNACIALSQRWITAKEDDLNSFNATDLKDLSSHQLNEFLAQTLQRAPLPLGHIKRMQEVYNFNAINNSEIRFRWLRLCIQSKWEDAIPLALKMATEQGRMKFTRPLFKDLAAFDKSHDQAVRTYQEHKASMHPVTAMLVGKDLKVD
In words: Recombinant human LTA4 hydrolase assay for LTA4 hydrolase inhibitor activity. It counts as biochemical. The note with it: rhLTA4H, LTA4 substrate, LTB4 by immunoassay; single determination or average; read-out: IC50. In short, it runs like this:
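Recombinant human LTA4H from baculovirus-infected Sf-9 cells (10 ng) pre-incubated 10 min at rt with compound (10% DMSO in dilutions), then reacted with free-acid LTA4 for 30 min at rt. LTB4 measured by ELISA; IC50 by nonlinear regression. Values are single determinations or averages.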

Experiment [2] has as its system LTB4 production by calcium ionophore-stimulated murine blood. Briefly: LTB4 production by calcium ionophore-stimulated murine blood for LTA4H inhibitor activity. The note with it: Mus musculus; murine blood diluted 1 in 15, calcium ionophore A23187, LTB4 by immunoassay; read-out: IC50. It counts as cell-based, CD-1 mice. How it is done: Assay 2: LTB4 Production by Calcium Ionophore-Stimulated Murine Blood for LTA4H Inhibitor Activity
CD-1 mice were sacrificed, and blood was collected in heparin-containing syringes by cardiac puncture. […] After the microtiter plate contents were incubated for 15 min at 37° C. in a humidified incubator, calcium ionophore A23187 (Sigma Chemical Co., St. Louis, Mo.) was added to each sample well (final concentration=7 μg/mL). The incubation was continued under the same conditions for an additional 30 min to allow LTB4 formation. The reaction was terminated by centrifugation (833×g, 10 min at 4° C.), and supernatants were analyzed for LTB4 by a commercially available enzyme-linked immunoassay (Cayman Chemical Co.) according to the manufacturer's instructions. Positive controls, under essentially identical conditions but without addition of an inhibitor compound, and negative unstimulated controls, containing all assay components except calcium ionophore, were routinely run in each experiment. […] The values presented here are the result of a single determination or an average of two or more determinations, as indicated in parentheses following each value. For compounds tested three or more times, the average value is followed by the standard deviation

Regarding `NC(=O)N1[C@@H]2CC[C@H]1CN(CCOc1ccc(Oc3nc4ncccc4s3)cc1)C2` [Example 149, meso-3-{2-[4-([1,3]Thiazolo[4,5-b]pyridin-2-yloxy)phenoxy]ethyl}-3,8-diazabicyclo[3.2.1]octane-8-carboxamide], the figures for the pIC50 in experiment [1] and in experiment [2] were 7.20 and 6.74, respectively.

As for `c1ccc(OC2CCN(Cc3ccc(Oc4nc5ncccc5s4)cc3)CC2)nc1` [Example 261, 2-(4-{[4-(Pyridin-2-yloxy)piperidin-1-yl]methyl}phenoxy)[1,3]thiazolo[4,5-b]pyridine], the pIC50 in experiment [1] was 8.15; in experiment [2] it was 7.42.

For the compound `NC(=O)N1CC2CN(CCc3ccc(Oc4nc5cccnc5s4)cc3)CC2C1` (centres unmarked) [Example 70, 5-{2-[4-([1,3]Thiazolo[5,4-b]pyridin-2-yloxy)phenyl]ethyl}hexahydropyrrolo[3,4-c]pyrrole-2(1H)-carboxamide], the negative logarithm of the IC50 (pIC50) is 7.14 in experiment [1] and 6.46 in experiment [2].

For `OC1(c2cccc(C(F)(F)F)c2)CCN(Cc2ccc(Oc3nc4ncccc4s3)cc2)CC1` [Example 103, 1-[4-([1,3]Thiazolo[4,5-b]pyridin-2-yloxy)benzyl]-4-[3-(trifluoromethyl)phenyl]piperidin-4-ol], the pIC50 was 8.00 in experiment [1] and 6.92 in experiment [2].

Take `c1cnc2nc(Oc3ccc(OCCN4CCOCC4)cc3)sc2c1` [Example 11, 2-[4-(2-Morpholin-4-ylethoxy)phenoxy][1,3]thiazolo[4,5-b]pyridine]: the negative logarithm of the IC50 (pIC50) was 7.01 in experiment [1] and 6.72 in experiment [2].

On to `NC(=O)N[C@@H]1C[C@H]2CC[C@@H](C1)N2CCc1ccc(Oc2nc3ncccc3s2)cc1` [Example 50, meso-1-[(3-exo)-8-{2-[4-([1,3]Thiazolo[4,5-b]pyridin-2-yloxy)phenyl]ethyl}-8-azabicyclo[3.2.1]oct-3-yl]urea], for which the values for the pIC50 in experiment [1] and in experiment [2] were 8.70 and 5.64, respectively.

In the case of `OC1(c2ccc(Cl)cc2)CCN(CCc2ccc(Oc3nc4ncccc4s3)cc2)CC1` [Example 47, 4-(4-Chlorophenyl)-1-{2-[4-([1,3]thiazolo[4,5-b]pyridin-2-yloxy)phenyl]ethyl}piperidin-4-ol], the values for the negative-log IC50 (pIC50) in experiment [1] and in experiment [2] were 7.47 and 6.68, respectively.

Take `CC(=O)N1C[C@H]2CC[C@@H](C1)N2CCc1ccc(Oc2nc3cccnc3s2)cc1` [Example 53, meso-2-(4-{2-[3-Acetyl-3,8-diazabicyclo[3.2.1]oct-8-yl]ethyl}phenoxy)[1,3]thiazolo[5,4-b]pyridine]: the pIC50 in experiment [1] was 7.24; in experiment [2] it was 5.60.

On to `CC(=O)NC1CCN(CCOc2ccc(Oc3nc4ncc(C)cc4s3)cc2)CC1` [Example 154, N-[1-(2-{4-[(6-Methyl[1,3]thiazolo[4,5-b]pyridin-2-yl)oxy]phenoxy}ethyl)piperidin-4-yl]acetamide], for which the results for the pIC50 in experiment [1] and in experiment [2] were 7.31 and 6.48, respectively.

On to `FC1CCN(Cc2ccc(Oc3nc4ncccc4s3)cc2)CC1` [Example 96, 2-{4-[(4-Fluoropiperidin-1-yl)methyl]phenoxy}[1,3]thiazolo[4,5-b]pyridine], for which the values for the pIC50 in experiment [1] and in experiment [2] were 7.62 and 7.43, respectively.

On to `OCC1CCN(Cc2ccc(Oc3nc4ncccc4s3)cc2)CC1` [Example 95, {1-[4-([1,3]Thiazolo[4,5-b]pyridin-2-yloxy)benzyl]piperidin-4-yl}methanol], for which the pIC50 in experiment [1] was 7.96; in experiment [2] it was 7.54.

With `C[C@H](c1ccccc1)N(C)CCc1ccc(Oc2nc3ncccc3s2)cc1` [Example 58, (1R)—N-Methyl-1-phenyl-N-{2-[4-([1,3]thiazolo[4,5-b]pyridin-2-yloxy)phenyl]ethyl}ethanamine], the pIC50 in experiment [1] was 8.10; in experiment [2], 7.35.

In the case of `c1cnc(OC2CCN(Cc3ccc(Oc4nc5nccnc5s4)cc3)CC2)nc1` [Example 184, 2-[(4-{[4-(Pyrimidin-2-yloxy)piperidin-1-yl]methyl}phenyl)oxy][1,3]thiazolo[4,5-b]pyrazine], the pIC50 was 7.74 in experiment [1] and 6.96 in experiment [2].

These data come from US20110190503A1, “Thiazolopyridin-2-yloxy-phenyl and thiazolopyrazin-2-yloxy-phenyl amines as modulators of leukotriene A4 hydrolase” (Janssen Pharmaceutical NV, priority 2008, published 2011).
